The subject of test [1] is LasR dependent quorum sensing controlled promoter, prsaL (reporter strain MW1.pUM15). Briefly: Signal Reception Assay (SRA), inhibition of the reporter in the presence of 0.3 μM 3-oxo-C12-HSL. To be noted: compound at 100 μM. In kind it is cell-based, Pseudomonas aeruginosa. The text has this:
(§1) The CSA yields a fluorescent signal reporting both signal synthesis and signal reception. The SRA yields a fluorescent signal due to signal reception. Compounds affecting signal reception can be detected by SRA. The SRA can detect compounds that modulate quorum sensing by inhibiting signal reception or activating signal reception. Inhibitor compounds are identified by performing the SRA with exogenous autoinducer at a concentration of half maximal activation and detecting changes in fluorescence indicative of inhibition of signal reception. Activator compounds are identified by performing the SRA in the absence of exogenous autoinducer.
The plasmid pUM15 carries a YFP reporter under control of a LasR dependent quorum sensing controlled promoter, prsaL. […] This is referred to as the Signal Reception Assay, as only those compounds that modulate signal reception will be detected.
Cells were grown in LB with 50 mM 3-(N-morpholino)propanesulfonic acid (MOPS) pH 7.0, 300 μg/mL carbenicillin. A single colony of MW1.pUM15 from a freshly struck plate was used to inoculate a starter culture and grown shaking at 30° C. not above an absorbance at 600 nm (A600) of 1.5. […]
Nanoplate format: Assay reagents were dispensed with the flying reagent dispenser, FRD (Vertex Pharmaceuticals Incorporated, San Diego, Calif.). […] Fluorescence was read with a SpectroFluor Plus plate reader (Tecan US, Durham, N.C.). […]

Test [2] has the same test system. Kind of test: Signal Reception Assay (SRA), activation of the reporter in the absence of an activating signal. In kind it is cell-based, Pseudomonas aeruginosa. To be noted: for activation of the reporter (agonist activity): compound at 100 μM, absence of an activating signal, SRA, MW1.pUM15.
Text: as §1
The plasmid pUM15 carries a YFP reporter under control of a LasR dependent quorum sensing controlled promoter, prsaL. When the plasmid is harbored by MW1, a strain lacking the ability to produce acylated homoserine lactones, the reporter is induced only in the presence of exogenous autoinducer. This is referred to as the Signal Reception Assay, as only those compounds that modulate signal reception will be detected.
Cells were grown in LB with 50 mM 3-(N-morpholino)propanesulfonic acid (MOPS) pH 7.0, 300 μg/mL carbenicillin. A single colony of MW1.pUM15 from a freshly struck plate was used to inoculate a starter culture and grown shaking at 30° C. not above an absorbance at 600 nm (A600) of 1.5. Cells were subcultured to A600 of 0.05 and grown shaking at 37° C. for 1-2 h. These mid-logarithmic cells were then added to dried down 3-oxo-C12-HSL to result in a final concentration of 0.3 μM. Induced cells were pipetted into wells containing the test compound. Uninduced cells were included as a control for the assay window. When the assay was used to characterize a potential activator, no homoserine lactone was added.
Nanoplate format: Assay reagents were dispensed with the flying reagent dispenser, FRD (Vertex Pharmaceuticals Incorporated, San Diego, Calif.). An aliquot of 1.5 μL reporter culture was added to wells in 3,456-well plates (3456 plates) and grown for 8-12 h before reading fluorescence with the topography-compensating plate reader, tcPR (Vertex Pharmaceuticals Incorporated, San Diego, Calif.). DR96 format: an aliquot of 50 μL culture was added to 96 well plate and grown for 6-8 h. Fluorescence was read with a SpectroFluor Plus plate reader (Tecan US, Durham, N.C.).
In all formats, plates were sealed in a humidified container and incubated staticly at 37° C. Fluorescence measurements were made with an excitation wavelength of 485 nm and emission wavelength of […]. To evaluate growth in the presence of test compound, the absorbance at 620 nm was also recorded.
The compounds in Table 2 were purchased from Chembridge Corp. (San Diego, Calif.), Specs (Wakefield, R.I.), Interbioscreen Ltd. (Moscow, Russia) and Chemical Diversity Labs, Inc. (San Diego, Calif.), and were characterized with the reporter strain MW1.pUM15 in both microtiter plate format and a shaking tube format. […] The tube format was performed to eliminate plate effects that may mask low levels of inhibition.
In both formats, the compounds were tested for (1) activation of the reporter in the absence of an activating signal, and (2) inhibition of the reporter in the presence of 0.3 μM 3-oxo-C12-HSL. All compounds were tested at 100 μM for their ability to activate or inhibit quorum sensing using the SRA assay. […]

Turning to `O=C(Nc1ccccc1NC(=O)c1cccc(Cl)c1)c1cccc(Cl)c1` [Compound 1], the “inhibition of the reporter (antagonist activity)” value in test [1] was “largest degree of inhibition”.
On to `O=C(Oc1c(Br)cc(Br)cc1CNC(=O)c1ccccc1Cl)c1ccc(F)cc1` [Compound 2], for which the “activation of the reporter (agonist activity)” value (from here on “activation of the reporter”) in test [2] is “activating effects”.
Regarding `Cc1ccccc1C(=O)Oc1c(Br)cc(Br)cc1CNC(=O)c1ccccc1Cl` [Compound 3], the “activation of the reporter” value in test [2] was “activating effects”.
As to `Cc1cc(C)c(OC(=O)c2ccc(Cl)cc2Cl)c(CNC(=O)c2ccccc2Cl)c1` [Compound 4], the “activation of the reporter” value in test [2] is “activating effects”.
As for `O=C(NCc1cc(Br)cc(Br)c1OC(=O)c1ccccc1[N+](=O)[O-])c1ccccc1Cl` [Compound 5], the “activation of the reporter” value in test [2] is “activating effects”. The “activation efficacy (FIG. 2), compared with 3-oxo-C12-HSL” value in test [2] (fluorescence in the SRA as a function of concentration, in the presence of 0.75% DMSO) is given as “an activating effect equal to 3-oxo-C12-HSL but at reduced concentrations”.

For the origin of these results see patent US20080287546A1, “Quorum Sensing Modulators” (priority 2005, published 2008).
